For this test, the target named is Prothrombin (Homo sapiens, UniProt P00734). In words: Compound was evaluated for the inhibitory activity against thrombin.
In the case of `CC(C)(C)OC(=O)N1C[C@@H](C(=O)N2CCC[C@H]2C(=O)N[C@@H](CCCCN)B2O[C@@H]3C[C@@H]4C[C@@H](C4(C)C)[C@]3(C)O2)[C@H](c2cccc(C(F)(F)F)c2)C1`, affinity was put at a Ki of 320 pM.
Take `CC1(C)[C@@H]2C[C@H]3OB([C@H](CCCCN)NC(=O)[C@@H]4CCCN4C(=O)[C@H]4CNC[C@@H]4c4cccc(C(F)(F)F)c4)O[C@@]3(C)[C@H]1C2`: the affinity corresponds to a Ki of 5600 pM.
Consider `CC1(C)[C@@H]2C[C@H]3OB([C@H](CCCCN)NC(=O)[C@@H]4CCCN4C(=O)[C@@H]4CNC[C@H]4c4cccc(C(F)(F)F)c4)O[C@@]3(C)[C@H]1C2`, for which the Ki (in general, the equilibrium dissociation constant of an inhibitor or competing ligand from its target) stood at 500 pM.
The molecule `CC12OB(C(CCCCN)NC(=O)[C@@H]3CCCN3C(=O)[C@H]3CCCC[C@@H]3c3ccccc3)OC1C[C@@H]1C[C@H]2C1(C)C` (stereo partly drawn) came in with an inhibition constant (Ki) of 30000 pM.
Next, `NCCC[C@H](NC(=O)[C@@H]1CCCN1C(=O)[C@@H]1CCCC[C@H]1c1ccccc1)B(O)O`: 460 pM; `NCCCC[C@H](NC(=O)[C@@H]1CCCN1C(=O)CCc1ccccc1)B(O)O`: 800 pM; `CC(C)(C)OC(=O)N1C[C@H](C(=O)N2CCC[C@H]2C(=O)N[C@@H](CCCCN)B2O[C@@H]3C[C@@H]4C[C@@H](C4(C)C)[C@]3(C)O2)[C@@H](c2cccc(C(F)(F)F)c2)C1`: 3100 pM.
`NCCCC[C@H](NC(=O)[C@@H]1CCCN1C(=O)CCc1cccc(C(F)(F)F)c1)B(O)O` gave a Ki of 780 pM.

The record behind these values is ChEMBL document CHEMBL1129708, “Design and synthesis of ring-constrained boropeptide thrombin inhibitors” (Bioorg Med Chem Lett, 1996).
